Measured values from US11932612B1, “6-(5-(3-fluorophenyl)-4-phenyl-4H-1,2,4-triazol-3-ylthio)hexanoic acid as an antimicrobial compound” (KING FAISAL UNIVERSITY, priority 2023, dated 2024).

Columns and labels:
Bacillus cereus = test: Agar plate disc-diffusion, antibacterial inhibition zone; assay type: cell-based; details: nutrient agar, 37° C., 48 h, DMSO zone subtracted
Experimental: (§1) The agar plate disc-diffusion method was applied. […] The discs were then placed onto the surface of agar plates (nutrient agar for bacteria and Sabouraud's dextrose agar for fungi) seeded with the test organism. Each plate contained 15 mLof the agar medium, previously seeded with 0.2 mL of the broth culture of each organism pregrown for 18 h. The plates were incubated at 37° C. for 48 h, and 72 h for fungi. The inhibition zones was measured in mm. Discs impregnated with DMSO were used as a control, and its inhibition zone was subtracted from the tested compound actual inhibition zone.

Escherichia coli = test: as above; assay type: cell-based; details: nutrient agar, 37° C., 48 h, DMSO zone subtracted
Experimental: as §1

Staphylococcus aureus = test: as above; assay type: cell-based; details: nutrient agar, 37° C., 48 h, DMSO zone subtracted
Experimental: as §1

Pseudomonas aeruginosa = test: as above; assay type: cell-based; details: nutrient agar, 37° C., 48 h, DMSO zone subtracted
Experimental: as §1

[1] = tested on: Chrysosporium keratinophilum; test: Agar plate disc-diffusion, antifungal inhibition zone; assay type: cell-based; details: Sabouraud's dextrose agar, 37° C., 72 h, DMSO zone subtracted
Experimental: as §1

Aspergillus flavus = test: as above; assay type: cell-based; details: Sabouraud's dextrose agar, 37° C., 72 h, DMSO zone subtracted
Experimental: as §1

[2] = A = concentration of comp. = 10,000 μL
[3] = B = concentration of comp. = 30,000 μL
[4] = C = concentration of comp. = 50,000 μL

O=C(O)CCCCCSc1nnc(-c2cccc(F)c2)n1-c1ccccc1 [III, 6-(5-(3-fluorophenyl)-4-phenyl-4H-1,2,4-triazol-3-ylthio)hexanoic acid]
melting point: 164 °C | inhibition zone, Bacillus Cereus (Bacillus cereus; [2]): 26 mm | inhibition zone, Bacillus Cereus (Bacillus cereus; [3]): 30 mm | inhibition zone, Bacillus Cereus (Bacillus cereus; [4]): 41 mm | inhibition zone, Escherichia coli (Escherichia coli; [2]): 27 mm | inhibition zone, Escherichia coli (Escherichia coli; [3]): 34 mm | inhibition zone, Escherichia coli (Escherichia coli; [4]): 56 mm | inhibition zone, Staphylococcus aureus (Staphylococcus aureus; [2]): 22 mm | inhibition zone, Staphylococcus aureus (Staphylococcus aureus; [3]): 25 mm | inhibition zone, Staphylococcus aureus (Staphylococcus aureus; [4]): 30 mm | inhibition zone, Pseudomonas aeruginosa (Pseudomonas aeruginosa; [2]): 24 mm | inhibition zone, Pseudomonas aeruginosa (Pseudomonas aeruginosa; [3]): 26 mm | inhibition zone, Pseudomonas aeruginosa (Pseudomonas aeruginosa; [4]): 45 mm | inhibition zone, Chrysosporium keratinophilum [1, 2]: 25 mm | inhibition zone, Chrysosporium keratinophilum [1, 3]: 28 mm | inhibition zone, Chrysosporium keratinophilum [1, 4]: 46 mm | inhibition zone, Aspergillus flavus (Aspergillus flavus; [2]): 21 mm | inhibition zone, Aspergillus flavus (Aspergillus flavus; [3]): 27 mm | inhibition zone, Aspergillus flavus (Aspergillus flavus; [4]): 37 mm
